The values that follow come from patent publication US20030153575A1, “Tetracyclic diketopiperazine compounds as pdev inhibitors” (priority 2002, published 2003).

The target in one series is human recombinant PDE5 (Homo sapiens, UniProt O76074). Description: Inhibitory effect on cGMP-PDE (PDE5 IC50). The format is biochemical. The conditions noted are these: in vitro, human recombinant PDE5, 0.15 μM 8-[H3]-cGMP, 30 min incubation. On the procedure:
The compounds of structural formula (I) were tested for an ability to inhibit PDE5. The ability of a compound to inhibit PDE5 activity is related to the IC50 value for the compound, i.e., the concentration of inhibitor required for 50% inhibition of enzyme activity. The IC50 value for compounds of structural formula (I) were determined using recombinant human PDE5.
cGMP-PDE activity of compounds of the present invention was measured using a one-step assay adapted from Wells et al., Biochim. Biophys. Acta, […], 430 (1975). The reaction medium contained 50 mM Tris-HCl, pH 7.5, 5 mM magnesium acetate, 250 μg/ml 5′-Nucleotidase, 1 mM EGTA, and 0.15 μM 8-[H^3]-cGMP. Unless otherwise indicated, the enzyme used was a human recombinant PDE5 (ICOS Corp., Bothell, Wash.).
Compounds of the invention were dissolved in DMSO finally present at 2% in the assay.

For orientation: IC50 means the concentration needed to halve the response being measured. A word on the melting point: it is the temperature, or range, at which the solid turns liquid. As for `COc1cc([C@@H]2c3[nH]c4ccccc4c3C[C@@H]3C(=O)N(C)CC(=O)N23)ccc1O` [Example 2, (6R,12aR)-6-(4-Hydroxy-3-methoxyphenyl)-2-methyl-2,3,6,7,12,12a-hexahydropyrazino[1′,2′:1,6]-pyrido[3,4-b]indole-1,4-dione], the melting point fell in the range of 288.2 to 292.2 °C. In addition, the IC50 at human recombinant PDE5 worked out at 230 nM.
`CN1CC(=O)N2[C@H](c3ccc(O)c(O)c3)c3[nH]c4ccccc4c3C[C@@H]2C1=O` [Example 1, (6R,12aR)-6-(3,4-Dihydroxyphenyl)-2-methyl-2,3,6,7,12,12a-hexahydropyrazino[1′,2′:1,6]-pyrido[3,4-b]indole-1,4-dione] returned a melting point of 250.5 to 256.6 °C. Also, the IC50 at human recombinant PDE5 was 45 nM.
